Assay [1] addresses T1, Endothelin-converting enzyme 1 (Homo sapiens, UniProt P42892).
T1 sequence (P42892 whole entry): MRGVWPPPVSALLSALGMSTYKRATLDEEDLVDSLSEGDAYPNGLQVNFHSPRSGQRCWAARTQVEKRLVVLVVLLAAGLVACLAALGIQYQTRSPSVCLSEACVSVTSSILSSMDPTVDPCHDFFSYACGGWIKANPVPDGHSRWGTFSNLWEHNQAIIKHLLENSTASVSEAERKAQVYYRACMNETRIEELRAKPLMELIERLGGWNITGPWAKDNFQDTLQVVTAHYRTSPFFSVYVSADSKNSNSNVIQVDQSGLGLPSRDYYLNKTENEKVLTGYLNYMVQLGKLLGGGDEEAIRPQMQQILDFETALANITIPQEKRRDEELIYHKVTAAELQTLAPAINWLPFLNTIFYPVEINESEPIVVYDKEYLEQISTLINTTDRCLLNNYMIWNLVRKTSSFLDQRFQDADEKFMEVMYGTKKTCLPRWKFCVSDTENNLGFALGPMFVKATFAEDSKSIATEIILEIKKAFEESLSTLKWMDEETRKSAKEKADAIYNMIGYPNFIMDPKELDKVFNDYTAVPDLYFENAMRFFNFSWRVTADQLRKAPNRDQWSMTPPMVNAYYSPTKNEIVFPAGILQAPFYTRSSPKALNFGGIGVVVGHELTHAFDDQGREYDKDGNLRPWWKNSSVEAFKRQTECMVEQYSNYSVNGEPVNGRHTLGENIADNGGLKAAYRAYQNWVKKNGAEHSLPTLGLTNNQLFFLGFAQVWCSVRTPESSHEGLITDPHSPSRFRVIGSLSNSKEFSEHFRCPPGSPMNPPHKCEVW
The experiment in a line: Enzyme Activity Assay. The protocol:
(§1) Recombinant ECE2 (32.5 ng) with a specific activity of 12 pmol/min/μg protein was generated as described previously. Secreted soluble recombinant ECE1 (30 ng) with a specific activity of 750 pmol/min/μg protein was generated and purified using a protocol similar to that used for ECE2. Solubilized midbrain membranes (10 μg) from wildtype or ECE2 knock-out mice were prepared as described. Enzymatic activity, in the absence or presence of the ECE2 inhibitor S136492 or the ECE1 inhibitor SM19712, was assayed using the synthetic quenched fluorescent substrate McaBk2 (10 μM) at 37 °C with either 0.2 M sodium acetate buffer, pH 5.5, or 50 mM Tris-Cl buffer, pH 7.4, as described previously [Gagnidze et al., J. Med. Chem., 51:3378-3387; Ouimet et al., J. Biol. Chem., 285:34390-34400].

For assay [2], the target named is EEF1AKMT4-ECE2 readthrough transcript protein (Homo sapiens, UniProt P0DPD8). The experiment in a line: Enzyme Activity Assay. The conditions noted are these: pH 5.5. The protocol: as §1
Chain of EEF1AKMT4-ECE2 readthrough transcript protein (P0DPD8 whole entry): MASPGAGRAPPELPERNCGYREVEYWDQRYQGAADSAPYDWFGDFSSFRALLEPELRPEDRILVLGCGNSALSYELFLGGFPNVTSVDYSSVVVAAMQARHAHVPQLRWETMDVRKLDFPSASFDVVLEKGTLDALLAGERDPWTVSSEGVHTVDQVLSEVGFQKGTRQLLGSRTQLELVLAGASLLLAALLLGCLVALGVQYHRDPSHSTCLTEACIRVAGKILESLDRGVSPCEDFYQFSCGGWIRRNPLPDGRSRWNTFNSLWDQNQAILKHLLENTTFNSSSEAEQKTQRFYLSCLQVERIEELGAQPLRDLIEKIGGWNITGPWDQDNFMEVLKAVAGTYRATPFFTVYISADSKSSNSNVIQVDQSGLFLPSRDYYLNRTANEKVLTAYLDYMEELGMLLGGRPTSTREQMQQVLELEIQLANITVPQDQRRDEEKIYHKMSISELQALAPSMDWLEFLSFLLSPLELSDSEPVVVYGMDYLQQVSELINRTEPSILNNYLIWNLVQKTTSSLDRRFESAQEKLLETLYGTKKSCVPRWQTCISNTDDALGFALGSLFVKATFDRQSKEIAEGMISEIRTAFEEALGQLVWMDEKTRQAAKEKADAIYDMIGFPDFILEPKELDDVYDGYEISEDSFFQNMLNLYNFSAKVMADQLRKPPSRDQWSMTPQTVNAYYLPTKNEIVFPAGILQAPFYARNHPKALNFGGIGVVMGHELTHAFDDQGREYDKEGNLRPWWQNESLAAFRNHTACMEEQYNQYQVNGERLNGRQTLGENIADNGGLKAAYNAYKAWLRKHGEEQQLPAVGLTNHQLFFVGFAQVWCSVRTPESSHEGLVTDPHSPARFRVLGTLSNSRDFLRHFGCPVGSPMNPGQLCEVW

Some results are limits rather than exact numbers.

In general, IC50 refers to the concentration needed to halve the response being measured. A high value points to lower potency.

In the case of `Cc1[nH]nc(NC(=O)NS(=O)(=O)c2ccc(Cl)cc2)c1C#N` [SM19712], the IC50 is above 100 µM in assay [1] (pH 5.5), 1.1 µM in assay [1] (pH 7.4) and 5 nM in assay [2].

Regarding `Oc1ccccc1/C=C\c1ccc2ccccc2n1` [2-(2-(quinolin-2-yl)vinyl)phenol], the IC50 in assay [1] (pH 5.5) was above 100 µM; in assay [1] (pH 7.4), above 100 µM; in assay [2], 1600 nM.
